Experimental data as given in patent US6472418B1, “Non-peptide NK1 receptors antagonists” (Warner-Lambert Company, priority 1998, dated 2002).

The molecules below were run against T1, Human NK1 Receptor (Homo sapiens, UniProt P25103) (assay: In Vitro Human NK1 Receptor Binding Assay ([125I]Bolton-Hunter substance P displacement, IM9 cells)). Settings: Human lymphoma IM9 cells, [125I]Bolton-Hunter substance P (0.05-0.1 nM), 50 min at 21° C.; Table 1; read-out: NK1 binding IC50.
T1 construct: endogenous in cells; host or cells: Human lymphoma IM9 cells (whole cells)
Experimental: They have been evaluated in an NK1-receptor binding assay which is described below.
Human lymphoma IM9 cells were grown in RPMI 1640 culture medium supplemented with 10% fetal calf serum and 2 mM glutamine and maintained under an atmosphere of 5% CO2. Cells were passaged every 3-4 days by reseeding to a concentration of 4-8×10^6/40 ml per 175 cm^2 flask. Cells were harvested for experiments by centrifugation at 1000 g for 3 min. Pelleted cells were washed once by resuspension into assay buffer (50 mM Tris HCl pH 7.4, 3 mM MnCl2, 0.02% BSA, […] bacitracin, […] chymostatin, 2 mM phosphoramidon, […] leupeptin) and repeating the centrifugation step before resuspending at a concentration of 2.5×10^6 cells/mL assay buffer. Cells ([…]) were incubated with [^125I]Bolton-Hunter substance P (0.05-0.1 nM) in the presence and absence of varying concentrations of test compounds for 50 min at 21° C. Non-specific binding (10% of the total binding observed under these conditions) was defined by […] [Sar^9, Met(02)^11] substance P. Reactions were terminated by rapid filtration under vacuum onto GF\C filters presoaked in 0.2% PEI for 1-2 h, using a Brandel cell harvester. Filters were washed with 6×1 ml ice-cold Tris HCl (50 mM, pH 7.4) and radioactivity bound determined using a gamma couter. Results were analyzed using iterative curve fitting procedures in RS1 or Graphpad Inplot.

T1 sequence (P25103 whole entry): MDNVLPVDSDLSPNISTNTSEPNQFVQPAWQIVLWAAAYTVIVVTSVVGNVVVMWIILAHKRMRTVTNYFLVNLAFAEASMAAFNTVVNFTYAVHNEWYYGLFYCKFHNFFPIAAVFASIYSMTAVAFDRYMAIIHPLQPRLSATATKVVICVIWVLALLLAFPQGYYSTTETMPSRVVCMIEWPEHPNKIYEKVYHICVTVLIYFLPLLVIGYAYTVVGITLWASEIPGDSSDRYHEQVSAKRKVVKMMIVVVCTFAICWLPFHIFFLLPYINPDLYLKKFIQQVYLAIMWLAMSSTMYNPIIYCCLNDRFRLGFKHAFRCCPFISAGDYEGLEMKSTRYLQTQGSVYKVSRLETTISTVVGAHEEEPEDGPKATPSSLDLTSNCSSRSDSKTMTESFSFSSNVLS

| Molecule | IC50 |
| --- | --- |
| C[C@H](NC(=O)[C@@H](Cc1c[nH]c2ccccc12)NCc1cccc(O)c1)c1ccccc1 (relative stereo) [Example 17, 2-(3-Hydroxy-benzylamino)-3-(1H-indol-3-yl)-N-(1-phenyl-ethyl)-propionamide, [R-(R*,S*)]] | 344 nM |

Same assay, conditions: Human lymphoma IM9 cells, [125I]Bolton-Hunter substance P; Table 3, array-synthesis products; read-out: IC50 (nM) hNK1

| Molecule | IC50 |
| --- | --- |
| O=C(NCc1cc(Cl)sc1Cl)C(Cc1c[nH]c2ccccc12)NCc1cc2ccccc2o1 (stereo not shown) [Example 215, 2-[(Benzofuran-2-ylmethyl)-amino]-N-(2,5-dichloro-thiophen-3-ylmethyl)-3-(1H-indol-3-yl)-propionamide] | 70 nM |
| COc1ccc(C(C)NC(=O)C(Cc2c[nH]c3ccccc23)NCc2cc3ccccc3o2)cc1 (stereo not shown) [Example 255, 2-[(Benzofuran-2-ylmethyl)-amino]-3-(1H-indol-3-yl)-N-[1-(4-methoxy-phenyl)-ethyl]-propionamide] | 9 nM |
| O=C(CNC(=O)C(Cc1c[nH]c2ccccc12)NCc1cc2ccccc2o1)c1ccccc1 (stereo not shown) [Example 237, 2-[(Benzofuran-2-ylmethyl)-amino]-3-(1H-indol-3-yl)-N-(2-oxo-2-phenyl-ethyl)-propionamide] | 5340 nM |
| O=C(NCc1cccc(Cl)c1)C(Cc1c[nH]c2ccccc12)NCc1cc2ccccc2o1 (stereo not shown) [Example 263, 2-[(Benzofuran-2-ylmethyl)-amino]-N-(3-chloro-benzyl)-3-(1H-indol-3-yl)-propionamide] | 9 nM |
| O=C(NC1CCCc2ccccc21)C(Cc1c[nH]c2ccccc12)NCc1cc2ccccc2o1 (stereo not shown) [Example 194, 2-[(Benzofuran-2-ylmethyl)-amino]-3-(1H-indol-3-yl)-N-(1,2,3,4-tetrahydro-naphthalen-1-yl)-propionamide] | 703 nM |

Same assay, conditions: Table 4; [125I]Bolton-Hunter substance P displacement, human IM9 cells; read-out: IC50 (nM) hNK1

| Molecule | IC50 |
| --- | --- |
| CC(NC(=O)C(C)(Cc1c[nH]c2ccccc12)NCc1ccccc1OCc1ccccn1)c1ccccc1 (stereo not shown) [compound 323, 3-(1H-Indol-3-yl)-2-methyl-N-(1-phenyl-ethyl)-2-[2-(pyridin-2-ylmethoxy)-benzylamino]-propionamide] | 3180 nM |
| CC(NC(=O)C(C)(Cc1c[nH]c2ccccc12)NCc1ccc(C=Cc2ccccc2)cc1)c1ccccc1 (stereo not shown) [compound 351, 3-(1H-Indol-3-yl)-2-methyl-N-(1-phenyl-ethyl)-2-(4-styryl-benzylamino)-propionamide] | > 10000 nM |
| CC(NC(=O)C(C)(Cc1c[nH]c2ccccc12)NCc1ccc(OCCCC(C)(C)C(=O)O)cc1)c1ccccc1 (stereo not shown) [compound 327, 5-(4-{[2-(1H-Indol-3-yl)-1-methyl-1-(1-phenyl-ethylcarbamoyl)-ethylamino]-methyl}-phenoxy)-2,2-dimethyl-pentanoic acid] | > 10000 nM |
| 2-(4-Benzyloxy-benzylamino)-3-(1H-indol-3-yl)-2-methyl-N-(1-phenyl-ethyl)-propionamide [compound 341] | > 10000 nM |
| CC(NC(=O)C(C)(Cc1c[nH]c2ccccc12)NCc1cccs1)c1ccccc1 (stereo not shown) [compound 357, 3-(1H-Indol-3-yl)-2-methyl-N-(1-phenyl-ethyl)-2-[(thiophen-2-ylmethyl)-amino]-propionamide] | 548 nM |
| CC(NC(=O)C(C)(Cc1c[nH]c2ccccc12)NCC(Cc1ccccc1)c1ccccc1)c1ccccc1 (stereo not shown) [compound 332, 2-(2,3-Diphenyl-propylamino)-3-(1H-indol-3-yl)-2-methyl-N-(1-phenyl-ethyl)-propionamide] | 4940 nM |

Same assay, conditions: Table 5; [125I]Bolton-Hunter substance P displacement, human IM9 cells; read-out: IC50 (nM) hNK1

| Molecule | IC50 |
| --- | --- |
| CC(NC(=O)C(Cc1c[nH]c2ccccc12)NCc1cc(C(F)(F)F)cc(C(F)(F)F)c1)c1ccccc1 (stereo not shown) [compound 398] | > 10000 nM |
| CC(NC(=O)C(Cc1c[nH]c2ccccc12)NCCCc1ccccc1)c1ccccc1 (stereo not shown) [compound 403] | 3910 nM |
| CC(NC(=O)C(Cc1c[nH]c2ccccc12)NCc1ccccc1OCc1cccnc1)c1ccccc1 (stereo not shown) [compound 361] | 729 nM |

Same assay, conditions: human NK1 receptor, IM9 cells, [125I]Bolton-Hunter substance P; read-out: IC50 (nM) hNK1

| Molecule | IC50 |
| --- | --- |
| CC(NC(=O)C(C)(Cc1c[nH]c2ccccc12)NCc1cc2ccccc2o1)c1ccc(Cl)cc1 (stereo not shown) [compound 30, 2-[(Benzofuran-2-ylmethyl)-amino]-N-[1-(4-chloro-phenyl)-ethyl]-3-(1H-indol-3-yl)-2-methyl-propionamide] | 17 nM |
| CC(Cc1c[nH]c2ccccc12)(NCc1cc2ccccc2o1)C(=O)NC1(CO)CCCC1 (stereo not shown) [compound 144, 2-[(Benzofuran-2-ylmethyl)-amino]-N-(1-hydroxymethyl-cyclopentyl)-3-(1H-indol-3-yl)-2-methyl-propionamide] | > 10000 nM |
| CC(Cc1c[nH]c2ccccc12)(NCc1cc2ccccc2o1)C(=O)NCCc1cccs1 (stereo not shown) [compound 172, 2-[(Benzofuran-2-ylmethyl)-amino]-3-(1H-indol-3-yl)-2-methyl-N-(2-thiophen-2-yl-ethyl)-propionamide] | 153 nM |
| CC(Cc1c[nH]c2ccccc12)(NCc1cc2ccccc2o1)C(=O)NCCc1cccnc1 (stereo not shown) [compound 145, 2-[(Benzofuran-2-ylmethyl)-amino]-3-(1H-indol-3-yl)-2-methyl-N-(2-pyridin-3-yl-ethyl)-propionamide] | 1300 nM |
| CC(Cc1c[nH]c2ccccc12)(NCc1cc2ccccc2o1)C(=O)NCc1ccc(Cl)cc1 (stereo not shown) [compound 64, 2-[(Benzofuran-2-ylmethyl)-amino]-N-(4-chloro-benzyl)-3-(1H-indol-3-yl)-2-methyl-propionamide] | 76 nM |
| CC(Cc1c[nH]c2ccccc12)(NCc1cc2ccccc2o1)C(=O)NCCc1ccc(N)cc1 (stereo not shown) [compound 56, N-[2-(4-Amino-phenyl)-ethyl]-2-[(benzofuran-2-ylmethyl)-amino]-3-(1H-indol-3-yl)-2-methyl-propionamide] | 3230 nM |
| CC(Cc1c[nH]c2ccccc12)(NCc1cc2ccccc2o1)C(=O)NCc1cnc(N)nc1N (stereo not shown) [compound 179, 2-[(Benzofuran-2-ylmethyl)-amino]-N-(2,4-diamino-pyrimidin-5-ylmethyl)-3-(1H-indol-3-yl)-2-methyl-propionamide] | 5920 nM |
| CC(Cc1c[nH]c2ccccc12)(NCc1cc2ccccc2o1)C(=O)NCCCn1ccnc1 (stereo not shown) [compound 134, 2-[(Benzofuran-2-ylmethyl)-amino]-N-(3-imidazol-1-yl-propyl)-3-(1H-indol-3-yl)-2-methyl-propionamide] | 5370 nM |
| CC(Cc1c[nH]c2ccccc12)(NCc1cc2ccccc2o1)C(=O)NCC(C)(C)N1CCCCC1 (stereo not shown) [compound 131, 2-[(Benzofuran-2-ylmethyl)-amino]-3-(1H-indol-3-yl)-2-methyl-N-(2-methyl-2-piperidin-1-yl-propyl)-propionamide] | > 10000 nM |
| CC(Cc1c[nH]c2ccccc12)(NCc1cc2ccccc2o1)C(=O)NCc1nc2ccccc2[nH]1 (stereo not shown) [compound 103, 2-[(Benzofuran-2-ylmethyl)-amino]-N-(1H-benzoimidazol-2-ylmethyl)-3-(1H-indol-3-yl)-2-methyl-propionamide] | 74 nM |
| CC(Cc1c[nH]c2ccccc12)(NCc1cc2ccccc2o1)C(=O)NCCc1ccc(O)c(O)c1 (stereo not shown) [compound 161, 2-[(Benzofuran-2-ylmethyl)-amino]-N-[2-(3,4-dihydroxy-phenyl)-ethyl]-3-(1H-indol-3-yl)-2-methyl-propionamide] | > 10000 nM |
| CC(Cc1c[nH]c2ccccc12)(NCc1cc2ccccc2o1)C(=O)NCc1ccc(F)cc1 (stereo not shown) [compound 61, 2-[(Benzofuran-2-ylmethyl)-amino]-N-(4-fluoro-benzyl)-3-(1H-indol-3-yl)-2-methyl-propionamide] | 61 nM |
| CC(Cc1c[nH]c2ccccc12)(NCc1cc2ccccc2o1)C(=O)NCc1ccc(Cl)c(Cl)c1 (stereo not shown) [compound 175, 2-[(Benzofuran-2-ylmethyl)-amino]-N-(3,4-dichloro-benzyl)-3-(1H-indol-3-yl)-2-methyl-propionamide] | 96 nM |
